Data: PubChem BioAssay (NCI)
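Tested at 5 concentrations; 48 h exposure; 96-well plates; endpoints linearly interpolated, else capped at highest concentration. GI50 marks 50% less growth. TGI denotes the concentration required for complete inhibition of growth.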

Legend:
Test in all cases: NCI tumour cell line growth inhibition, 48 h
[1] = system: 786-0 renal
[2] = system: A498 renal
[3] = system: A549 NSCLC
[4] = system: ACHN renal
[5] = system: CAKI-1 renal
[6] = system: COLO 205 colon
[7] = system: DLD-1 colon
[8] = system: DMS 114 small cell lung
[9] = system: DMS 273 small cell lung
[10] = system: EKVX NSCLC
[11] = system: HCC-2998 colon
[12] = system: HCT-116 colon
[13] = system: HCT-15 colon
[14] = system: HL-60(TB) leukemia
[15] = system: HOP-18 NSCLC
[16] = system: HOP-62 NSCLC
[17] = system: HOP-92 NSCLC
[18] = system: HT29 colon
[19] = system: IGROV1 ovarian
[20] = system: K-562 leukemia
[21] = system: KM12 colon
[22] = system: KM20L2 colon
[23] = system: LOX IMVI melanoma
[24] = system: LXFL 529 NSCLC
[25] = system: M14 melanoma
[26] = system: M19-MEL melanoma
[27] = system: MALME-3M melanoma
[28] = system: MOLT-4 leukemia
[29] = system: NCI-H226 lung
[30] = system: NCI-H23 lung
[31] = system: NCI-H460 lung
[32] = system: NCI-H522 lung
[33] = system: OVCAR-3 ovarian
[34] = system: OVCAR-4 ovarian
[35] = system: OVCAR-5 ovarian
[36] = system: OVCAR-8 ovarian
[37] = system: RPMI-8226 leukemia
[38] = system: RXF 393 renal
[39] = system: RXF-631 renal
[40] = system: SF-268 CNS
[41] = system: SF-295 CNS
[42] = system: SF-539 CNS
[43] = system: SK-MEL-2 melanoma
[44] = system: SK-MEL-28 melanoma
[45] = system: SK-MEL-5 melanoma
[46] = system: SK-OV-3 ovarian
[47] = system: SN12C renal
[48] = system: SNB-19 CNS
[49] = system: SNB-75 CNS
[50] = system: SNB-78 CNS
[51] = system: SW-620 colon
[52] = system: TK-10 renal
[53] = system: U251 CNS
[54] = system: UACC-257 melanoma
[55] = system: UACC-62 melanoma
[56] = system: UO-31 renal
[57] = system: XF 498 CNS
[58] = system: CCRF-CEM leukemia
[59] = system: MCF7 breast
[60] = system: NCI/ADR-RES ovarian
[61] = system: P388 leukemia
[62] = system: P388/ADR leukemia
[63] = system: SN12K1 renal

CC(C)C(NCc1c2ccccc2[n+](C)c2ccccc12)C(=O)O (centres undefined)
TGI [1]: 15.6 µM | TGI [2]: 24.6 µM | TGI [3]: 29.9 µM | TGI [4]: 16.4 µM | TGI [5]: 12.1 µM | TGI [6]: 10.6 µM | TGI [7]: 13.8 µM | TGI [8]: 5.79 µM | TGI [9]: 13.3 µM | TGI [10]: 24.2 µM | TGI [11]: 29.3 µM | TGI [12]: 13.6 µM | TGI [13]: 13.9 µM | TGI [14]: > 21 µM | TGI [15]: 18.1 µM | TGI [16]: 19.7 µM | TGI [17]: 12.5 µM | TGI [18]: 10.3 µM | TGI [19]: 25.5 µM | TGI [20]: 18.5 µM | TGI [21]: 18.7 µM | TGI [22]: 7.33 µM | TGI [23]: 17.3 µM | TGI [24]: 14 µM | TGI [25]: 16 µM | TGI [26]: 21.2 µM | TGI [27]: 19.1 µM | TGI [28]: 7.86 µM | TGI [29]: 38.6 µM | TGI [30]: 27.2 µM | TGI [31]: 29.1 µM | TGI [32]: 3.69 µM | TGI [33]: 16.9 µM | TGI [34]: 20.7 µM | TGI [35]: 33.2 µM | TGI [36]: 15.1 µM | TGI [37]: 5.15 µM | TGI [38]: 12.5 µM | TGI [39]: 17.1 µM | TGI [40]: 10.9 µM | TGI [41]: 20.5 µM | TGI [42]: 14.3 µM | TGI [43]: 17 µM | TGI [44]: 26.8 µM | TGI [45]: 20.8 µM | TGI [46]: 31 µM | TGI [47]: 18 µM | TGI [48]: 33 µM | TGI [49]: 18 µM | TGI [50]: 24.8 µM | TGI [51]: 18.8 µM | TGI [52]: 21.3 µM | TGI [53]: 18 µM | TGI [54]: 19.5 µM | TGI [55]: 18.6 µM | TGI [56]: 21.7 µM | TGI [57]: 17.8 µM

Cc1cc(-c2ccc(N=Nc3ccc4c(S(=O)(=O)O)cc(S(=O)(=O)O)c(N)c4c3O)c(C)c2)ccc1N=Nc1ccc2c(S(=O)(=O)O)cc(S(=O)(=O)O)c(N)c2c1O
TGI [2]: > 100 µM | TGI [3]: > 100 µM | TGI [58]: > 100 µM | TGI [6]: > 100 µM | TGI [7]: > 100 µM | TGI [8]: > 100 µM | TGI [9]: > 100 µM | TGI [10]: > 100 µM | TGI [11]: > 100 µM | TGI [12]: > 100 µM | TGI [13]: > 100 µM | TGI [14]: > 100 µM | GI50 [15]: > 100 µM | TGI [15]: > 100 µM | TGI [16]: > 100 µM | TGI [17]: > 100 µM | TGI [18]: > 100 µM | TGI [19]: > 100 µM | TGI [20]: > 100 µM | TGI [21]: > 100 µM | TGI [22]: > 100 µM | TGI [23]: > 100 µM | TGI [26]: > 100 µM | TGI [27]: > 100 µM | TGI [59]: > 100 µM | TGI [28]: > 100 µM | TGI [29]: > 100 µM | TGI [30]: > 100 µM | TGI [31]: > 100 µM | TGI [32]: > 100 µM | TGI [60]: > 100 µM | TGI [33]: > 100 µM | TGI [34]: > 100 µM | TGI [35]: > 100 µM | TGI [36]: > 100 µM | TGI [61]: > 100 µM | TGI [62]: > 100 µM | TGI [37]: > 100 µM | TGI [38]: > 100 µM | TGI [40]: > 100 µM | TGI [41]: > 100 µM | TGI [42]: > 100 µM | TGI [43]: > 100 µM | TGI [44]: > 100 µM | TGI [45]: > 100 µM | TGI [46]: > 100 µM | TGI [47]: > 100 µM | TGI [63]: > 100 µM | TGI [48]: > 100 µM | TGI [49]: > 100 µM | TGI [50]: > 100 µM | TGI [51]: > 100 µM | TGI [53]: > 100 µM | TGI [54]: > 100 µM | TGI [55]: > 100 µM | TGI [56]: > 100 µM | TGI [57]: > 100 µM
